From patent publication US20080058324A1, “Alpha-Keto Carbonyl Calpain Inhibitors” (SANTHERA PHARMACEUTICALS (SCHWEIZ) AG, priority 2004, published 2008)

Assays:
20S Proteasome = biological target: T1, 20S Proteasome (Oryctolagus cuniculus, UniProt G1T4Q9); test: 20S Proteasome Assay; assay type: biochemical, Rabbit; details: read-out: 20S Prot IC50
T1 sequence (G1T4Q9 60-263): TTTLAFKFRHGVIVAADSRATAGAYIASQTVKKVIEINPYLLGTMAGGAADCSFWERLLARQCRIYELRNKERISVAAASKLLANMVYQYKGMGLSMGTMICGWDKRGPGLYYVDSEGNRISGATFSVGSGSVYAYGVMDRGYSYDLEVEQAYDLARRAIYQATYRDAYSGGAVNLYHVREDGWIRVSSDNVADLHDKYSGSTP
Experimental: 25 μl of a reaction buffer containing 400 μM of the fluorogenic substrate Suc-Leu-Leu-Val-Tyr-AMC (Bachem) are dispensed per well of a white microtiter plate. Test compounds dissolved in 0.5 μl DMSO are added. To start the reaction; 25 μl of reaction buffer containing 35 ng of enzyme (20S Proteasome, Rabbit, Calbiochem) are added. The increase in fluorescence (excitation at 360 nm; emission at 440 nm) is measured over 30 min at 30° C. at 30″. The IC50's are then determined from the slopes.

[1] = tested on: cellular calpains in C2C12 myoblasts; test: Calpain Inhibition Assay in C2C12 Myoblasts; assay type: cell-based; details: read-out: Calp I IC50 Myoblast
Experimental: This assay is aimed at monitoring the ability of the substance to inhibit cellular calpains. C2C12 myoblasts are grown in 96-well plates in growth medium (DMEM, 20% foetal calf serum) until they reach confluency. The growth medium is then replaced by fusion medium (DMEM, 5% horse serum). 24 hours later the fusion medium is replaced by fusion medium containing the test substances dissolved in 1 μl DMSO. After 2 hours of incubation at 37° C. the cells are loaded with the calpain fluorogenic substrate Suc-Leu-Tyr-AMC at 400 μM in 50 μl of a reaction buffer containing 135 mM NaCl; 5 mM KCl; 4 mM CaCl2; 1 mM MgCl2; 10 mM Glucose; 10 mM HEPES pH 7.25 for 20 min at room temperature. The calcium influx, necessary to activate the cellular calpains, is evoked by the addition of 50 μl reaction buffer containing 20 μM of the calcium ionophore Br-A-23187 (Molecular Probes). The fluorescence of the cleavage product AMC is measured as described above during 60 min at 37° C. at intervals of 1 min. The IC50 values are determined as described above. Comparison of the IC50 determined in the enzymatic calpain inhibition assay to the IC50 determined in the C2C12 myoblasts calpain inhibiton assay, allows to evaluate the cellular uptake or the membrane permeability of the substance.

human μ-calpain = biological target: T2, human μ-calpain (Homo sapiens, UniProt P07384); test: Enzymatic Calpain Inhibition Assay; assay type: biochemical; details: read-out: Calp I IC50
T2 construct: purchased Calbiochem
T2 sequence (P07384 1-714): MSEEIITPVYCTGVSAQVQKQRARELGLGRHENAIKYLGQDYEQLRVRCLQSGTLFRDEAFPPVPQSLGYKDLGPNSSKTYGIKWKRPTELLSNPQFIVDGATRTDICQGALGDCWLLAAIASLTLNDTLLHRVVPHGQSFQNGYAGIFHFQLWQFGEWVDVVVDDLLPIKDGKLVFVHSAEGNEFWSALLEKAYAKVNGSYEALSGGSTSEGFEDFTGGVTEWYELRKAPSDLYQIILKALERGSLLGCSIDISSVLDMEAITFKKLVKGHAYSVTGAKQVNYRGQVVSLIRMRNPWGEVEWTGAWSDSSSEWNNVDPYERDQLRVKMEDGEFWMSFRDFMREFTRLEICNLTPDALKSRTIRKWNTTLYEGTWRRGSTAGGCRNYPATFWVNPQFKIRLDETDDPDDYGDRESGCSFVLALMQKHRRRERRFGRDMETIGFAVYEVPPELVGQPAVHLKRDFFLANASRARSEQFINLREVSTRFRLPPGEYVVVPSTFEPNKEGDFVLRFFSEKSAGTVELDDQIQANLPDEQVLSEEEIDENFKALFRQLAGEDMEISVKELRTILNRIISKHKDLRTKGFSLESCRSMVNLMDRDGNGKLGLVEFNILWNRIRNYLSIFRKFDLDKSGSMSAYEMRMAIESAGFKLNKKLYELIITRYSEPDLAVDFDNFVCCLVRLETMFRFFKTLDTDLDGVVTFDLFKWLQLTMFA
T2 sequence (P04632 1-268 partner): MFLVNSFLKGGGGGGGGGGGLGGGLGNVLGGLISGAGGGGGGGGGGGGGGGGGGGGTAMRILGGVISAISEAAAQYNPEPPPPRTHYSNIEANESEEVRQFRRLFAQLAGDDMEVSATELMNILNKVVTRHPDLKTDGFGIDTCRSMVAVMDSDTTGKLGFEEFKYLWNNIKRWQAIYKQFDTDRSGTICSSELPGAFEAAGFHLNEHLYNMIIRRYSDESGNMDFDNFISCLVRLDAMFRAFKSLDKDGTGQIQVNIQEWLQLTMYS
Experimental: The Ki value was also determined in some cases. These criteria were used to measure the inhibitory effect of the compounds (I) on calpain I, calpain II and cathepsin B.
The inhibitory properties of calpain inhibitors are tested in 100 μl of a buffer containing 100 mM imidazole pH 7.5, 5 mM L-Cystein-HCl, 5 mM CaCl2, 250 μM of the calpain fluorogenic substrate Suc-Leu-Tyr-AMC (Sigma) (Sasaki et al., J. Biol. Chem., 1984, 259, 12489-12949) dissolved in 2.5 μl DMSO and 0.5 μg of human μ-calpain (Calbiochem). The inhibitors dissolved in 1 μl DMSO are added to the reaction buffer. The fluorescence of the cleavage product 7-amino-4-methylcoumarin (AMC) is followed in a SPECTRAmax GEMINI XS (Molecular Device) fluorimeter at λex=360 nm and λem=440 nm at 30° C. during 30 min at intervals of 30 sec in 96-well plates (Greiner). The initial reaction velocity at different inhibitor concentrations is plotted against the inhibitor concentration and the IC50 values determined graphically.

| SMILES | IC50 (20S Proteasome) | IC50 [1] | IC50 (human μ-calpain) |
| --- | --- | --- | --- |
| CCNC(=O)C(=O)C(Cc1ccc(Cl)cc1)NC(=O)C(NC(=O)C(Cc1cccc2ccccc12)NC(=O)CCCCc1cccs1)C(C)C (stereo not drawn) [Example 22] | < 10 nM | 150 nM | 300 nM |
| CCNC(=O)C(=O)C(Cc1ccc(OC)cc1)NC(=O)C(NC(=O)C(CCc1ccccc1)NC(=O)CCc1cccs1)C(C)C (stereo not drawn) [Example 520] | 23 nM | 10 nM | 15 nM |
| CCNC(=O)C(=O)[C@H](Cc1ccc(Cl)cc1)NC(=O)[C@@H](NC(=O)[C@H](Cc1ccccc1)NC(=O)CCCCc1cccs1)C(C)C [Example 1] | 120 nM | 50 nM | 45 nM |
